This note sets out measurements from patent publication US20220402867A1, “SULFO-SUBSTITUTED BIARYL COMPOUND OR SALT THEREOF, PREPARATION METHOD THEREFOR, AND USE THEREOF” (Shanghai Litedd Co., Ltd., priority 2019, published 2022).

Where two headings read alike, the source gives them in different places.

Data set [1] in a line: Pharmacokinetic (PK) assay in mice. It is filed as in vivo. The settings on record: CD-1 mice; for CL_obs: values marked **; for AUC(0-t) / Cmax / half-life / Vd / bioavailability: mouse, plasma; for Vd: read-out: Vss; for bioavailability: Po 5 mg/kg vs IV 1 mg/kg. The method, then:
The PK of each compound was determined as follows: 6 CD-1 mice (obtained from Shanghai Lingchang Biotechnology Co., Ltd.) were divided into two groups, 3 mice in each group. One group was administered intravenously at a dose of 1 mg/kg, and the vehicle was 5% DMSO/40% PEG400/55% (20% 3-CD); one group was administered by oral gavage at a dose of 5 mg/kg, and the vehicle was DMSO/1% methylcellulose (1:99). Blood samples were collected from saphenous vein of lower leg in each group at 0, 0.083, 0.25, 0.5, 1, 2, 4, 6, 8 and 24 h after administration. Approximately 40 μL of the blood samples were collected into anticoagulant tubes containing EDTA-K2. Immediately after collection, the tubes were inverted at least 5 times to ensure uniform mixing, and then placed on ice. The blood samples collected at each time point were centrifuged at 4° C., 8000 rpm for 5 minutes to obtain plasma. Another 1.5 mL centrifuge tube was marked with the compound name, animal number, and time point, and the plasma was transferred to this tube. The plasma was stored at −80° C. until analysis.
Compound concentrations in plasma were determined by UPLC-MS/MS method, and the pharmacokinetic parameters were calculated by Phoenix WinNolin 6.4 pharmacokinetic software on the obtained data.

For data set [2], the target named is T1, GST-RORγ LBD (263-509) (Homo sapiens, UniProt P51449).
T1 construct: GST-RORγ LBD ((263-509) (produced at ChemPartner))
T1 sequence (P51449 263-509): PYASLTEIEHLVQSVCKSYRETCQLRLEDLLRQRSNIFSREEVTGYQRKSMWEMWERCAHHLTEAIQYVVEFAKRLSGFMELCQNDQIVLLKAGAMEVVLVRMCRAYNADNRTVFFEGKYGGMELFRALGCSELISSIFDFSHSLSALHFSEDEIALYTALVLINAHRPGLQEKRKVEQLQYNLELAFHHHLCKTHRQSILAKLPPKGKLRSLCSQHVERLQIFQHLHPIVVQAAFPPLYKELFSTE
As to the kind of experiment: TR-FRET assay of agonistic activity on RORγ receptor. It counts as biochemical. As to the method: A time-resolved fluorescence resonance energy transfer (TR-FRET) assay was used for the compounds of the present disclosure, to determine the agonistic activity of the compounds on the RORγ protein receptor. The agonistic activity is expressed by the concentration for 50% of maximal effect (EC50). The experiment was performed basically with reference to the methods described in ONCOIMMUNOLOGY, 2016, VOL. 5, NO. 12, e1254854.
1. Preparation of RORγ Basal Buffer
A 100 mL basal buffer was prepared, mixed homogeneously and stored for use;
The compounds of the examples shown in the table below were prepared into solutions with DMSO as the solvent, serially diluted at 3-fold dilution to 10 concentrations starting from 10 mM, and added to the corresponding wells of a 384-well plate with each concentration of each compound in duplicate;
a. A 75 nM solution of GST-RORγ LBD ((263-509) (produced at ChemPartner)) and a 4 nM solution of Biotin-SRC1 (Glsbiochem) were prepared with the above basal buffer. The two solutions were 1:1 mixed evenly, and 10 μL of the mixed solution was added into each well of the above 384-well plate. The plate was immediately centrifugated at 1000 rpm for 10 seconds; b. A 1 nM solution of Anti-GST Eu (Cisbio, #61GSTKLA) and a 50 nM solution of SA-APC (Cisbio, […]) were prepared with the above basal buffer. The two solutions were 1:1 mixed evenly, and 10 μL of the mixed solution was added into each well of the above 384-well plate. The plate was immediately centrifugated at 1000 rpm for 10 seconds; c. The resulting 384-well plate was incubated at room temperature for 15 minutes. Data were read on an Envision microplate reader, EC50 values and E max % were calculated.
a. Readings were taken at 665 nm and 615 nm wavelengths respectively on the Envision Microplate Reader, and the ratios between them were normalized. b. Calculation was carried out with the following equation: […]
wherein X is the reading of compounds, Min is the reading of the blank solution, and Max is the reading of 10 μM SRC. c. The concentration-response curve data were fitted by a four-parameter logistic nonlinear regression model, and Emax was the TOP value of the fitted curve.
For orientation: TR-FRET usually uses a lanthanide donor and a delayed reading to cut background.

The nature of data set [3]: Metabolic stability in mouse liver microsomes. It is filed as in vitro ADME, CD-1 mice. The source says:
(§1) According to standard methods of in vitro metabolic stability studies in the art, eg., the methods described in Kerns, Edward H. and Di Li (2008). Drug-like Properties: Concepts, Structure Design and Methods: from ADME to Toxicity Optimization. San Diego: Academic Press; Di, Li et al., Optimization of a Higher Throughput Microsomal Stability Screening Assay for Profiling Drug Discovery Candidates, J. Biomol. Screen. 2003, The method described in 8(4), 453, the liver microsomal metabolic stability test of the compounds of the present disclosure was carried out analogously as follows.
(§2) The incubation system contained 0.5 mg protein/mL microsomes, cofactors, and PBS, was pre-incubated at 37° C. for 3 min, and then added the substrate (i.e., the test compounds) to initiate the reaction. Samples were taken at 0, 1, 5, 10, 15, 20, 30 and 60 min from the start of the reaction, and an appropriate terminator was added to terminate the reaction.
(§3) The terminator was an ice acetonitrile solution containing 100 ng/mL tolbutamide and 100 ng/mL labetalol.
(§4) Sample treatment (n=3): each appropriate sample was added, vortexed and centrifuged at high speed. The supernatants were collected, and the substrate was detected by HPLC-MS/MS. The peak area at the 0 min was taken as 100%. The peak areas at other time points were converted to percentage of the remaining amount. The natural logarithms of the percentage of remaining amount at each time point was plotted against the incubation time, and the slope (−k) was calculated by linear regression. Then, Clint (uL/min/mg) and half-life (T½, min) of the compounds were calculated following the equation of the inherent clearance rate (Clint)=(k* volume of incubation solution)/mass of liver microsomes.

Data set [4] can be described thus: Metabolic stability in human liver microsomes. It counts as in vitro ADME. The conditions noted are these: for microsomal CLint: 0.5 mg protein/mL.
Excerpt: as §1, §2, §3, §4

Data set [5] deals with T2, RORγt (RORγ-LBD chimeric receptor) (Homo sapiens, UniProt P51449).
T2 construct: host or cells: HEK293T
T2 sequence (P51449 269-508 limits assumed): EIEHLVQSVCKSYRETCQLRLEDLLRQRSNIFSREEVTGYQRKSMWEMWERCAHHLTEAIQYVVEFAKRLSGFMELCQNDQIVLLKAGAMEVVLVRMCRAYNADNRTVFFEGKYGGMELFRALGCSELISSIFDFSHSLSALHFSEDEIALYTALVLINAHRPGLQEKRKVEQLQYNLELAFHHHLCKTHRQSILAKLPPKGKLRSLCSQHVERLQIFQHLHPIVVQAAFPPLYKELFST
As to the kind of experiment: Luciferase reporter gene assay of RORγt agonistic activity in HEK293T cells. It is filed as cell-based. Also noted: Emax: dose or concentration left out as unconfirmed. The conditions noted are these: for Emax: HEK-293T. The text has this:
This assay was basically carried out according to the method described in the literature ONCOIMMUNOLOGY, 2016, VOL. 5, NO. 12, e1254854.
The RORγ-LBD coding sequence was inserted into pBIND plasmid (Promega, E1581). This expression vector and a reporter vector (pGL4.35 carrying a stably integrated luciferase reporter gene driven by GAL4 promoter) were co-expressed in HEK293T host cells. When the agonist binds to the corresponding chimeric receptor, the chimeric receptor binds to the GAL4 binding site on the reporter gene carrier and stimulates reporter gene expression. The agonistic activity of the compound on RORγ was determined according to the intensity of the chemiluminescence signal.
1.1 All test compounds were serially diluted at 3-fold dilution with DMSO, with 10 serial dilutions starting from 10 mM; LIT-00093 solution was prepared similarly. […] 1.4 The compound plate was sealed and shaken for 5 min.
Cells were cultured according to ATCC standard operation, and 6*10^6 HEK293T cells were seeded into 100 mm cell culture dishes, cultured overnight in a 37° C., 5% CO2 incubator, and then transfected. Compounds of corresponding concentrations were added for treatment, and the Steady-Glo™ kit (Lot E 2520) was used for further detection.
Chemiluminescence values were detected with Envision 2104; EC50 values were calculated.
% Activity was calculated with the following equation: […]
RLU: […] R L Upositive: average value of positive control R L Uvehicle: average value of negative control
The log values of the compound concentration and % Activity were fitted using Graphad 8.0, to calculate EC50s of the compounds.

As to `COC[C@H](C(=O)Nc1cc(Cl)c(-c2ccc(S(=O)(=O)C3CC3)cc2)c(Cl)c1)c1ccc(S(C)(=O)=O)cc1` (single isomer, unassigned) [Example 35, (S)—N-(2,6-dichloro-4′-(cyclopropylsulfonyl)-[1,1′-biphenyl]-4-yl)-3-methoxy-2-(4-(methylsulfonyl)phenyl)propanamide or (R)—N-(2,6-dichloro-4′-(cyclopropylsulfonyl)-[1,1′-biphenyl]-4-yl)-3-methoxy-2-(4-(methylsulfonyl)phenyl)propanamide], in data set [1] (IV 1 mg/kg), the CL_obs is 2.40** mL/min/kg, the AUC(0-t) came to 6880 ng·h/mL, the highest level (Cmax) was 1340 ng/mL and the half-life is 214 min. In addition, the Vd in data set [1] (IV 1 mg/kg, values marked *) was determined as 0.83 L/kg. In data set [1], the bioavailability was 32.8%. In data set [1] (Po 5 mg/kg), the AUC(0-t) came to 9140 ng·h/mL, the highest level (Cmax) was 700 ng/mL and the half-life was 738 min.
In the case of `CS(=O)(=O)c1ccc(C(CO)C(=O)Nc2cc(Cl)c(-c3ccc(S(=O)(=O)C4CC4)cc3)c(Cl)c2)cc1` (single isomer, unassigned) [Example 37, (S)—N-(2,6-Dichloro-4′-(cyclopropylsulfonyl)-[1,1′-biphenyl]-4-yl)-2-(4-(methylsulfonyl)phenyl)-3-hydroxypropionamide or (R)—N-(2,6-dichloro-4′-(cyclopropylsulfonyl)-[1,1′-biphenyl]-4-yl)-2-(4-(methylsulfonyl)phenyl)-3-hydroxypropionamide], in data set [1] (IV 1 mg/kg), the CL_obs was 7.21** mL/min/kg, the AUC(0-t) is 2170 ng·h/mL, the Cmax turned out to be 1320 ng/mL and the half-life is 132 min. In data set [1] (IV 1 mg/kg, values marked *), the Vd stood at 1.27 L/kg. Moreover, the bioavailability in data set [1] is 15.8%. In data set [1] (Po 5 mg/kg), the AUC(0-t) was found to be 1440 ng·h/mL, the Cmax was 294 ng/mL and the half-life is 156 min. Moreover, the EC50 in data set [2] (TR-FRET, GST-RORγ LBD with Biotin-SRC1) is 27.4 nM. The compound also gave an Emax % in data set [2] (maximum activation rate, TOP of fitted curve) of 197.0%.
Take `CS(=O)(=O)c1ccc(-c2c(Cl)cc(NC(=O)Cc3ccc(S(=O)(=O)CCO)cc3)cc2Cl)cc1` [Example 14, N-(2,6-Dichloro-4′-(methylsulfonyl)-[1,1′-biphenyl]-4-yl)-2-(4-(2-hydroxyethylsulfonyl)phenyl)acetamide]: in data set [3] (60 min), the “% Remaining (T = 60 min)” value amounted to 87.3%. Also, the half-life in data set [3] (CD-1) is > 145 min. For the same compound, in data set [3] (CD-1, 0.5 mg protein/mL), the microsomal CLint is < 9.6 µL/min/mg. Moreover, in data set [4], the half-life is 92.8 min, the microsomal CLint turned out to be 14.9 µL/min/mg and the “% Remaining (T = 60 min)” value is 61.7%. In data set [5], this compound had an EC50 of 225 nM and a maximum response (Emax) of 40.7%.
Consider `CC(C)Cc1ccc(-c2c(Cl)cc(NC(=O)Cc3ccc(S(C)(=O)=O)cc3)cc2Cl)cc1C#N` [LIT-00093, reference compound], for which, in data set [4], the half-life was 4.7 min, the microsomal CLint amounted to 295 µL/min/mg and the “% Remaining (T = 60 min)” value is given as 0%. In data set [5] (HEK293T, GAL4 luciferase reporter, read-out: EC50), the EC50 was 116 nM. Also, in data set [5], the Emax amounted to 83.9%.
`CC(C)(C[C@H]1CN(S(=O)(=O)c2cccc(C(F)(F)F)c2)c2cc(-c3cc(F)cc(OC(F)F)c3)ccc2O1)C(=O)O` [LYC-55716, reference compound]: in data set [1] (IV 1 mg/kg), the AUC(0-t) is 256 ng·h/mL, the concentration peaked (Cmax) at 353 ng/mL, the half-life is 158 min and the Vd was determined as 7.23 L/kg. The compound further came in with a bioavailability in data set [1] of 21%. Moreover, in data set [1] (Po 5 mg/kg), the AUC(0-t) turned out to be 269 ng·h/mL, the concentration peaked (Cmax) at 52.6 ng/mL and the half-life is 321 min.

For orientation: AUC(0-t) means exposure summed from dosing to a finite time, without extrapolation to infinity. By Cmax is commonly meant the maximum level reached in the sampled fluid or tissue. Usually half-life stands for how long it takes for the measured level to halve. Usually bioavailability stands for dose-corrected exposure relative to a reference, in per cent. By EC50 is commonly meant the concentration giving half of the maximal effect. Broadly, the microsomal CLint is a measure of how fast metabolising enzymes remove a compound, apart from limits set by blood flow. Broadly, the Emax is the maximal effect, on the per cent scale that the assay sets.
